Results on 103 compounds are retold here after PubChem BioAssay AID1996.

In brackets after ≈: the same amount, converted by molar mass.

For this series the following is noted: buffer; pH 7.4; 200.0 µM.
In turn, `COc1cccc2sc(/N=C/N(C)C)nc12` registered a solubility (kinetic) of 33.6 µg/mL (≈ 143 µM).
For `Cc1ccc(OC(=O)c2cncc(Br)c2)c(C)c1` the value was 6.8 µg/mL (≈ 22.2 µM).
For `CCOC(=O)C1CCCCN1Cc1cn(C)nc1-c1ccccc1F` (stereo not drawn) the value was greater than 51.8 µg/mL.
For `NC(=O)C1CCN(CC(=O)Nc2cccnc2Cl)CC1` the value was 44.1 µg/mL (≈ 149 µM).
As to `O=C(CN1C(=O)NC(c2ccccc2)(c2ccccc2)C1=O)NCc1ccc(F)cc1`, the kinetic solubility amounted to 6.4 µg/mL (≈ 15.3 µM).
In turn, `Cc1ccc(Cn2c(N3CCN(C)CC3)nc3c2c(=O)[nH]c(=O)n3C)cc1` had a solubility (kinetic) greater than 55.3 µg/mL.
As for `CN(C(=O)CN1C(=O)NC2(CCCc3ccccc32)C1=O)C1CCCCC1` (stereo not drawn), the figure is greater than 55.4 µg/mL.
As for `Cc1ccc(S(=O)(=O)c2nc(-c3ccccc3Cl)oc2N(C)C2CCN(C)CC2)cc1`, the figure is greater than 69 µg/mL; as for `Cc1ccsc1C(=O)OCC(=O)N1CCc2ccccc2C1`, 34.6 µg/mL (≈ 110 µM); as for `CSCc1cc(N(C)c2ccccc2)nc(-c2ccccn2)n1`, 42.8 µg/mL (≈ 133 µM).
`CCOc1cc(C(=O)Nc2ccc(S(=O)(=O)Nc3onc(C)c3C)cc2)cc(OCC)c1OCC` gave a solubility (kinetic) greater than 75.5 µg/mL.
For `Cc1ccc(-c2csc(NC(=O)c3cnccn3)n2)cc1C` the value was less than 0.2 µg/mL; for `CC(NC(=O)c1ccccc1N)c1ccccc1` (stereo not drawn), greater than 36 µg/mL; for `CCN(CC)CCNS(=O)(=O)c1ccc(/C=C/C(=O)O)cc1`, 41 µg/mL (≈ 126 µM).
`COc1ccc(OS(=O)(=O)c2c(C)noc2C)cc1`: the kinetic solubility came out at 29.3 µg/mL (≈ 103 µM).
As for `CCc1ccc(NC(=O)C(C)OC(=O)Cc2cc(OC)c(OC)c(OC)c2)cc1` (stereo not drawn), the figure is greater than 60.2 µg/mL; as for `Cc1ccc(N(Cc2cc(=O)[nH]c3ccccc23)C(=O)C(C)C)c(C)c1`, 17.7 µg/mL (≈ 50.8 µM); as for `O=C(Nc1ncccn1)c1ccc([N+](=O)[O-])cc1Cl`, 27.8 µg/mL (≈ 99.8 µM).
For `CCC(C)[C@H](NC(=O)NC1CCCc2ccccc21)C(=O)OC` (stereo partly drawn) the value was 22 µg/mL (≈ 69.1 µM); for `CCOc1ccccc1NC(=O)C1CCN(S(C)(=O)=O)CC1`, greater than 49 µg/mL.
`CCNC(=O)Nc1ccc(S(=O)(=O)Nc2cnc(C)nc2C)cc1` came in with a kinetic solubility greater than 52.4 µg/mL.
The compound `O=C(COc1ccc(Cl)cc1)Nc1nnc(C2=COCCO2)o1` gave a solubility (kinetic) greater than 50.7 µg/mL.
As for `CCN(CC)Cc1c(O)ccc2c(=O)c(-c3ccccc3Cl)coc12`, the figure is greater than 53.7 µg/mL; as for `N#Cc1c(-c2ccc3c(c2)OCO3)cc[nH]c1=O`, 2.3 µg/mL (≈ 9.57 µM).
`COc1ccc(C(=O)CN2C(=O)c3ccccc3C2=O)c(OC)c1` registered a solubility (kinetic) of 1.3 µg/mL (≈ 4 µM). Compared with the last compound, the solubility kinetic is about 1.8-fold lower.
As for `CC(=O)Oc1ccc2occ(/C=N/c3cc(=O)[nH]c(=S)[nH]3)c(=O)c2c1`, the figure is greater than 53.6 µg/mL; as for `Cc1cccc(OCC(O)Cn2ccnc2C)c1` (stereo not drawn), 33.2 µg/mL (≈ 135 µM); as for `Cc1ccc(NC(=O)C[n+]2ccccc2)cc1C.[Cl-]`, greater than 41.5 µg/mL.
For `CC(C)(C)C(=O)NC(c1ccccc1)c1c(O)ccc2ccccc12` (stereo not drawn) the value was 0.9 µg/mL (≈ 2.7 µM).
As for `Cc1cccc(CN2CCN(C(=O)c3cccc4ccccc34)CC2)c1`, the figure is 38.6 µg/mL (≈ 112 µM); as for `O=c1[nH]c2c(oc3ccccc32)c(=O)n1Cc1ccccc1`, 3 µg/mL (≈ 10.3 µM); as for `COc1ccc(CC(C)Nc2cccc(F)c2)cc1` (stereo not drawn), 1 µg/mL (≈ 3.86 µM).
As for `Fc1ccc(-c2csc(NC(=S)Nc3ccccc3)n2)cc1`, the kinetic solubility stood at 1.6 µg/mL (≈ 4.86 µM). This solubility kinetic lies about 1.6-fold higher than the previous one.
`CCOC(=O)C1CCN(C(=O)COC(=O)c2ccccc2OCC)CC1` registered a solubility (kinetic) greater than 54.5 µg/mL.
On to `CC(C(Sc1ccccc1N)c1ccccc1)[N+](=O)[O-]` (stereo not drawn), for which the solubility (kinetic) turned out to be 15.1 µg/mL (≈ 52.4 µM).
In the case of `COc1cc(OC)cc(C(=O)O/N=C(\N)c2cccc(C)c2)c1`, the solubility (kinetic) amounted to 6.2 µg/mL (≈ 19.7 µM).
On to `CCCCOc1ccc(C(=O)OCC(=O)N2CCOCC2)cc1`, for which the kinetic solubility turned out to be 29.9 µg/mL (≈ 93 µM). This solubility kinetic lies about 4.8-fold higher than the previous one.
For `CC(=O)c1c(O)c2ccccc2n(C)c1=O` the value was 27.3 µg/mL (≈ 126 µM); for `O=C(N/N=C/c1ccoc1)c1ccc(Cl)cc1Cl`, greater than 42.5 µg/mL; for `CCCC[N+]12CCC(CC1)C(Cc1ccccc1)C2.[Br-]` (stereo not drawn), greater than 50.7 µg/mL.
For `COc1cccc(-n2c(SCc3ccccn3)nc3c(c2=O)SCC3)c1` the value was 54.1 µg/mL (≈ 141 µM); for `CCC(=O)c1cn(CC(=O)Nc2c(C)cccc2C)c2ccccc12`, less than 0.4 µg/mL; for `CCCC(CCC(=O)Nc1cccc([N+](=O)[O-])c1)C(=O)O` (stereo not drawn), greater than 44.1 µg/mL.
For `Cc1cc(C(=O)Nc2ccc(F)cc2C)cs1` the value was 24.4 µg/mL (≈ 97.9 µM).
The compound `COc1cccc(-n2cn[nH]c2=S)c1` returned a kinetic solubility greater than 31.1 µg/mL.
Compound `O=C(NCCCNC(=O)c1ccco1)c1ccc(Cl)c(Cl)c1` displayed a kinetic solubility of 44.2 µg/mL (≈ 130 µM).
For the compound `O=C(COC(=O)c1c(F)cccc1Cl)NC1CCCC1`, the kinetic solubility is greater than 45 µg/mL.
In turn, `CNC(=O)NC(=O)COc1ccc2oc3c(c2c1)CCCC3` registered a solubility (kinetic) of 2 µg/mL (≈ 6.62 µM).
For `Nc1nc(-c2ccccc2)cc(-c2ccccc2)n1` the value was 2.6 µg/mL (≈ 10.5 µM); for `CCOC(=O)N1CCN(CCC(=O)Nc2ccccc2)CC1`, 32.2 µg/mL (≈ 105 µM).
As for `CC(=O)Nc1ccc(OCc2ccc3c(c2)OCO3)cc1`, the figure is 15.4 µg/mL (≈ 54 µM).
As for `CN1CCN(c2ccc(F)cc2N)CC1`, the figure is greater than 31.4 µg/mL; as for `CCOc1ccc2c(c1)c(C(C)=O)c(C)n2Cc1ccco1`, less than 0.6 µg/mL.
`Cc1cc(/C=C(\C#N)C(=O)OCC#N)c(C)n1CC(C)C`: the kinetic solubility was 13.6 µg/mL (≈ 47.7 µM).
As for `O=C(CN1C(=O)NC(Cc2c[nH]c3ccccc23)C1=O)Nc1ccccc1C(F)(F)F` (stereo not drawn), the figure is greater than 64.6 µg/mL.
`CC1CC(C(=O)Nc2ccccc2)C(=O)O1` (stereo not drawn) came in with a kinetic solubility of 27.2 µg/mL (≈ 124 µM).
For `Cc1ccc(OCCNC(=O)c2ccccc2O)cc1` the value was 4.5 µg/mL (≈ 16.6 µM).
As for `CC(C)(C)NC(=O)NCc1cccnc1`, the figure is 29.4 µg/mL (≈ 142 µM).
For `Fc1ccccc1NC(=S)NCc1ccc(Cl)cc1` the value was 11.2 µg/mL (≈ 38 µM); for `Cn1cc(S(=O)(=O)N2CCCC2)cc1C(=O)O`, greater than 38.7 µg/mL; for `O=C1CCCCCN1CP(=O)(O)CN1CCCCCC1=O`, 46.1 µg/mL (≈ 146 µM).
The compound `O=C(Nc1cc(Cl)ccc1-n1cncn1)C1CC1` came in with a solubility (kinetic) greater than 39.4 µg/mL.
As for `O=C(O)CCN1C(=O)c2ccc(NC(=O)c3ccco3)cc2C1=O`, the figure is greater than 49.2 µg/mL; as for `CN(CCc1ccccc1)Cc1nc(-c2cnccn2)no1`, 44 µg/mL (≈ 149 µM); as for `CC(NC(=O)c1ccncc1)c1ccc(Br)cc1` (stereo not drawn), greater than 45.8 µg/mL.
For `Cc1ccc(NC(=O)C=NOCC(=O)Nc2cc(C)cc(C)c2)cc1` the value was 3.5 µg/mL (≈ 10.3 µM); for `O=S(=O)(Nc1ccncc1Cl)c1ccc2ccccc2c1`, 42.3 µg/mL (≈ 133 µM).
Take `Cc1ccccc1C(=O)N1CCc2c([nH]c3ccccc23)C1C(F)(F)F` (stereo not drawn): the kinetic solubility is less than 0.4 µg/mL.
For `CCN(CC)C(=S)Oc1c(Cl)cccc1Cl` the value was 2.2 µg/mL (≈ 7.91 µM).
For `CCc1ccc(CN(C)Cc2nc(COc3ccccc3)no2)nc1` the value was 36.7 µg/mL (≈ 108 µM); for `CCOC(=O)C1=C(C)N=C2SCCC(=O)N2[C@@H]1c1cccs1`, 39.1 µg/mL (≈ 116 µM).
For `Cc1ccc(O)c(NC(=O)Cc2ccc3ccccc3c2)c1` the value was 6.5 µg/mL (≈ 22.3 µM); for `Cc1cccc(N2C(=O)c3ccc(Br)cc3C2=O)n1`, greater than 47.6 µg/mL; for `CCOc1cccc(C(=O)NC(c2ccccc2)C(C)C)c1` (stereo not drawn), 5.1 µg/mL (≈ 17.1 µM).
The compound `CC1CCC(NCCNC(=O)c2ccco2)CC1` (stereo not drawn) gave a solubility (kinetic) of 26.7 µg/mL (≈ 107 µM). Compared with the last compound, the solubility kinetic is about 5.2-fold higher.
For `C=CCN=C1S/C(=C\c2ccc(Cl)cc2)C(=O)N1CC=C` the value was 2 µg/mL (≈ 6.27 µM); for `O=C(CNS(=O)(=O)c1ccc(Br)cc1)Nc1ccc2c(c1)OCCO2`, 8.7 µg/mL (≈ 20.4 µM); for `CN(C)c1ccc(Nc2ccc([N+](=O)[O-])cn2)cc1`, 1 µg/mL (≈ 3.87 µM).
For `O=C1N[C@@H](Cc2ccccc2)C(=O)N2CCC[C@@H]12` the value was greater than 36.6 µg/mL; for `CCC(C)Nc1nc(N)c([N+](=O)[O-])c(N2CCCCCC2)n1` (stereo not drawn), 29.1 µg/mL (≈ 94.4 µM).
Consider `O=C1/C(=C/Nc2ccc3c(c2)OCO3)CCc2ccccc21`, for which the kinetic solubility was 1.4 µg/mL (≈ 4.77 µM).
As for `CCOC(=O)c1sc(=NC(=O)c2ccc(Cl)s2)n(C)c1C`, the figure is 0.5 µg/mL (≈ 1.45 µM); as for `O=C1C2CCCCC2C(=O)N1c1nccs1` (stereo not drawn), greater than 35.4 µg/mL; as for `O=C(NNC(=O)c1ccccn1)c1ccc(OC(F)F)cc1`, greater than 46.1 µg/mL.
As for `O=C(NCCN1CCN(C(=O)c2cccc(OC(F)F)c2)CC1)c1cccc(OC(F)F)c1`, the figure is greater than 70.4 µg/mL.
As for `Cc1cc(C=C2C(=O)NC(=O)NC2=O)c(C)n1-c1cccnc1`, the figure is 10.6 µg/mL (≈ 34.2 µM); as for `Cc1cc(Br)ccc1NC(=O)C1C2CCC(O2)C1C(=O)O` (stereo not drawn), greater than 53.1 µg/mL; as for `Nc1ccc(C(=O)C(=O)c2ccccc2)cc1`, greater than 33.8 µg/mL.
Consider `Cc1ccc(N=C2NC(=O)/C(=C/c3cccnc3)S2)cc1C`, for which the kinetic solubility is less than 0.2 µg/mL.
For `CC1(C)OC(=O)C(=NNc2ccccc2C(=O)O)C(=O)O1` the value was greater than 43.8 µg/mL; for `COc1ccc(CC(=O)Nc2cc(S(=O)(=O)N3CCOCC3)ccc2N2CCCC2)cc1OC`, greater than 73.4 µg/mL.
For `COc1ccc(NC(=O)O/N=C/c2ccncc2)cc1` the value was greater than 40.7 µg/mL; for `O=C(NC1CCCCC1)c1cc(C2CC2)on1`, greater than 35.1 µg/mL.
As for `CCOc1ccc(Nc2nc(NCC(=O)O)nc(N)c2[N+](=O)[O-])cc1`, the figure is greater than 52.2 µg/mL; as for `O=C(COc1ccc(Cl)cc1)NCc1ccncc1`, greater than 41.5 µg/mL.
`NC(=O)Cn1c(=O)n(Cc2ccccc2)c(=O)c2cccnc21` came in with a kinetic solubility of 33.8 µg/mL (≈ 109 µM).
As for `CCOC(=O)c1cc(S(=O)(=O)N2CCC(C)CC2)cn1C`, the figure is 5.2 µg/mL (≈ 16.5 µM); as for `O=C(N/C=C/c1ccco1)Nc1cccc(Cl)c1`, 31.3 µg/mL (≈ 119 µM).
As for `O=C(COc1ccccc1)Nc1ccncc1`, the figure is greater than 34.2 µg/mL; as for `CCCCCCC(=O)N(O)C1CC(=O)N(c2ccc(Cl)cc2)C1=O` (stereo not drawn), 43.9 µg/mL (≈ 124 µM).
For `COc1ccc(CCNC(=O)COC(=O)/C=C/c2ccc(OC)cc2OC)cc1` the value was 5.1 µg/mL (≈ 12.8 µM); for `O=C(COC(=O)c1ccc2c(c1)OCCO2)Nc1ccc(F)cc1`, 2.6 µg/mL (≈ 7.85 µM); for `Cc1onc(-c2ccccc2)c1C(=O)NCCc1ccncc1`, greater than 46.1 µg/mL.

What is called solubility (kinetic) is the concentration staying in solution when a stock, usually in DMSO, is diluted into the medium.
